According to patent EP2236511A2, “LIGANDS OF ALPHA-ADRENOCEPTORS AND OF DOPAMINE, HISTAMINE, IMIDAZOLINE AND SEROTONIN RECEPTORS AND THE USE THEREOF” (priority 2007, dated 2009):
Counter-ions that a name gives are not always drawn. Like-named read-outs stand apart in the source and are kept apart here.

Experiments:
[1] = target: T1, recombinant human 5-HT6 receptor (Homo sapiens, UniProt P50406); experiment: Radioligand binding to serotonin receptor 5-HT6 ([3H] Lysergic acid diethylamide, HeLa membranes)
T1 construct: expressed in transfected cells; host or cells: HeLa
Text: Mol Pharmacol. 43:320-327, 1993]. […] Methiothepin is used as positive control.

[2] = target: T2, recombinant human 5-HT2B receptor (Homo sapiens, UniProt P41595); experiment: Radioligand binding to serotonin receptor 5-HT2B ([3H] Lysergic acid diethylamide, CHO-K1 membranes)
T2 construct: expressed in transfected cells; host or cells: CHO-K1
Description: For this purpose membrane species are prepared from CHO-K1 cells comprising recombinant human 5-HT2B receptor by homogenization of recombinant cells in glass homogenizer with the subsequent separation of plasmatic membranes from cell nuclei, mitochondrias and cell wreckages by differential centrifugation. […] After incubation the samples are filtered in vacuo on glass-microfiber filters G/F (Millipor, USA), filters are washed three times with cold solution of medium and radioactivity is measured by scintillation counter MicroBeta 340 (Perkin Elmer, USA). […] Ketanserin is used as positive control. The tested compounds' binding to the receptor is determined by their ability to displace the radioligand and is expressed in percent of displacement (%I). Values of %I are calculated according to the following equation: %I = (TA-CA)/(TA-NA)*100, [formula] wherein: TA - is the overall radioactivity in the presence of radioligand only, CA - is the radioactivity in the presence of radioligand and tested compound and NA - is the radioactivity in the presence of radioligand and Serotonin (10 µM).

human H2 receptor = target: T3, human H2 receptor (Homo sapiens, UniProt P25021); experiment: Radioligand binding to histamine receptor H2 ([125I] Aminopotentidine, CHO-K1 membranes); conditions: for inhibition at 10 µM: read-out: Histamine receptors, % inhibition H2
T3 construct: expressed in transfected cells; host or cells: CHO-K1
Text: Proc Natl Acad Sci USA. 87(5): 1658-1662, 1990]. […] Proc Natl Acad Sci USA. 87(5): 1658-1662, 1990]. […] Tiotidine is used as positive control.

human α1D receptor = target: T4, human α1D receptor (Homo sapiens, UniProt P25100); experiment: Radioligand binding to adrenergic receptor α1D ([3H] Prazosin, HEK-293 membranes); conditions: for nH: Receptor α1D
T4 construct: expressed in transfected cells; host or cells: HEK-293
T4 sequence (P25100 1-572): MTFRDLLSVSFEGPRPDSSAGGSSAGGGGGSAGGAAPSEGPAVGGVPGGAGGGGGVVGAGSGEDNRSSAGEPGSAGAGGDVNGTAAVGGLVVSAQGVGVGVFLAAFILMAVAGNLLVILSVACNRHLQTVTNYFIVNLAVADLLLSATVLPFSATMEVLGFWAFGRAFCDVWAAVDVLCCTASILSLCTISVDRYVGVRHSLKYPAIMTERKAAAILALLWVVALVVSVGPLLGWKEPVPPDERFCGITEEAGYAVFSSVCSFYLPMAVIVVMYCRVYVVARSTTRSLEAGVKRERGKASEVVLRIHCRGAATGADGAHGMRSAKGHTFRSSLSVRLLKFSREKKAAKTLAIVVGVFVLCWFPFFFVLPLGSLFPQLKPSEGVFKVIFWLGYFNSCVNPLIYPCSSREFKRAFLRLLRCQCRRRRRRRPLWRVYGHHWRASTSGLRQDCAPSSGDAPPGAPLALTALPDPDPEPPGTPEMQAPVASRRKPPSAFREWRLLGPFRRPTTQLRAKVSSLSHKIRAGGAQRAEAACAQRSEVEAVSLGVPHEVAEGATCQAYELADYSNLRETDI
Text: 6-C. […] For this purpose sDNA of human α1D receptor is expressed in HEK-293 cells, as it was described in [TL Theroux, TA Esbenshade, RD Peavy and KP Minneman. Coupling efficiencies of human alpha 1-adrenergic receptor subtypes: titration of receptor density and responsiveness with inducible and repressible expression vectors. Mol Pharmacol.; 50: 1376-1387, 1996]. […] Characterization of an α1D-adrenoceptor mediating the contractile response of rat aorta to noradrenaline. […] Prazosin is used as positive control.

human α2A receptor = target: T5, human α2A receptor (Homo sapiens, UniProt P08913); experiment: Radioligand binding to adrenergic receptor α2A ([3H] MK-912, Sf9 membranes); conditions: for nH: Receptor α2A
T5 construct: expressed in transfected cells; host or cells: Sf9
T5 sequence (P08913 1-465): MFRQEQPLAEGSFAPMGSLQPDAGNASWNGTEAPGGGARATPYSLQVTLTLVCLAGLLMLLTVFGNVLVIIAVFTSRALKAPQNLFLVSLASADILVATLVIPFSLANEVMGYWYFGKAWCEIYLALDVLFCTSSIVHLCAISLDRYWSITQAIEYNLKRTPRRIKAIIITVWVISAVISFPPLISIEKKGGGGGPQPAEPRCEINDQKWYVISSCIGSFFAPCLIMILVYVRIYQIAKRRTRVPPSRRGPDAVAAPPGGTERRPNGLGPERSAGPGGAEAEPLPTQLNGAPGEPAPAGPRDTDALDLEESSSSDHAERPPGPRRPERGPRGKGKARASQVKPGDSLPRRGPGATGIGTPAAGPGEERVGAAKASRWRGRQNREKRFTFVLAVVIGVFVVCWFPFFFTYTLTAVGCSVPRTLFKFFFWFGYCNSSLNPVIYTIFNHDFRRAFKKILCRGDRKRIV
Text: For this purpose sDNA of human α2A receptor is expressed in Sf9 cells, as described in [Uhlen S, Porter AC and Neubig RR. […] J Pharmacol ExpTher. […] J Pharmacol ExpTher. […] Yohimbine is used as positive control.

adrenergic receptor α1A = target: T6, adrenergic receptor α1A (Rattus norvegicus, UniProt P43140); experiment: Radioligand binding to adrenergic receptor α1A ([3H] Prazosin, rat submaxillary gland membranes); conditions: for nH: Receptor α1A
T6 construct: membrane species from rat submaxillary glands (rat of Wistar breed) are prepared; from tissue; host or cells: rat (Wistar) submaxillary gland
T6 sequence (P43140 1-466): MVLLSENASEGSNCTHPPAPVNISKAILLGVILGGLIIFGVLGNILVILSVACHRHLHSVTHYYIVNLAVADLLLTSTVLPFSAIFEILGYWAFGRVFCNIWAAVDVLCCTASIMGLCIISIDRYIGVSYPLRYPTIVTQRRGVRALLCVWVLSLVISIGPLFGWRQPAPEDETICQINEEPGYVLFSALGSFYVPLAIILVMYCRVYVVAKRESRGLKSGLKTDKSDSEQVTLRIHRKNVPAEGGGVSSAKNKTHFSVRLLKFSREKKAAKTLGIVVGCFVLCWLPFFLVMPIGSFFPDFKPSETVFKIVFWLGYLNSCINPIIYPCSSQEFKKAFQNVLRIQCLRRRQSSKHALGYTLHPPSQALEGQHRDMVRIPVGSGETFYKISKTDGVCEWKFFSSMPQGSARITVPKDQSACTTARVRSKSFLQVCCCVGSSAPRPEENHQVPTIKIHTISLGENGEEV
Description: Determination of investigated compounds' binding to α1A receptor was carried out according to the method described in [Michel AD, Loury DN and Whiting R1. Identification of a single α1A-adrenoceptor corresponding to the α1A-subtype in rat submaxillary gland. […] Prazosin is used as positive control.

[3] = read-out: α-Adrenoceptor, % inhibition α1D
[4] = read-out: α-Adrenoceptor, % inhibition α2A
[5] = last block of Table 11: receptor printed 5-HT6 in r18, cell blank in r19-r21
[6] = read-out: α-Adrenoceptor, % inhibition α1A

T1 sequence (P50406 whole entry): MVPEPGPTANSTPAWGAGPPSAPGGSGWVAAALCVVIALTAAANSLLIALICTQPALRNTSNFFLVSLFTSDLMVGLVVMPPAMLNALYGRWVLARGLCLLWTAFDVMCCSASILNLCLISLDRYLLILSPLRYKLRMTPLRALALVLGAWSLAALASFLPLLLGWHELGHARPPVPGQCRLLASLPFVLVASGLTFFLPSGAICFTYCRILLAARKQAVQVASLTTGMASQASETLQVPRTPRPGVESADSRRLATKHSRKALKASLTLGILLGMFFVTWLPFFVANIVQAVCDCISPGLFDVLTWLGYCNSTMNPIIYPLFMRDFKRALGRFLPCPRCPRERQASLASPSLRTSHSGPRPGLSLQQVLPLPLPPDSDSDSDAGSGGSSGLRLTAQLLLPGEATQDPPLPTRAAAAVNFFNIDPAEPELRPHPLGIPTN
T3 sequence (P25021 whole entry): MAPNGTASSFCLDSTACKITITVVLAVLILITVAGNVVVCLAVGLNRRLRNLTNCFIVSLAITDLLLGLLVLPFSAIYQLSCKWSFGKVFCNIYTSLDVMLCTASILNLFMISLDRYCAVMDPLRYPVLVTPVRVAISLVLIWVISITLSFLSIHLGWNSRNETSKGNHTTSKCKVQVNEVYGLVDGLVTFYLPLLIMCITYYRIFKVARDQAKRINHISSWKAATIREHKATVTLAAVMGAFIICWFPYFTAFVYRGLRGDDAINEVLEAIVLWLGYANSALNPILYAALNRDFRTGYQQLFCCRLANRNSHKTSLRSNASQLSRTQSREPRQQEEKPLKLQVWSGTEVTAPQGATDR
T2 sequence (P41595 whole entry): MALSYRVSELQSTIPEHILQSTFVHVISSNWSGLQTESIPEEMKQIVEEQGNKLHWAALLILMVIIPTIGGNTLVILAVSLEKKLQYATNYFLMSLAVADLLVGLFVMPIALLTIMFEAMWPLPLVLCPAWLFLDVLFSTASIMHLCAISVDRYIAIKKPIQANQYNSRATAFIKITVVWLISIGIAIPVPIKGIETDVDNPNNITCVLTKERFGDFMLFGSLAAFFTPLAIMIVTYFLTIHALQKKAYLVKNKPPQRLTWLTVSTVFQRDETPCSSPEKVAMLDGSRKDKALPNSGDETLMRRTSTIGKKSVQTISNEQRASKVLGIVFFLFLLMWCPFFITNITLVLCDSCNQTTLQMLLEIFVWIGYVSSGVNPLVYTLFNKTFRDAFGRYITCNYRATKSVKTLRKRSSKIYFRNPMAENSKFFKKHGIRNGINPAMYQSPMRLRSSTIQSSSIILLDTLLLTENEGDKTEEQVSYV

Cc1ccc2c(c1)[C@@H]1CN(C)CCC[C@@H]1N2CCc1ccc(C)nc1 (relative stereo) [1.6.1(2)·3HCl]
inhibition at 1 µM ([1]; read-out: 5-HT6 % inhibition): 76%
inhibition at 10 µM ([1]; read-out: 5-HT6 % inhibition): -10%
inhibition at 10 µM ([2]; read-out: 5-HT2B % inhibition): -2%
inhibition at 10 µM (human H2 receptor): 66%
inhibition at 10 µM (human α1D receptor; [3]): 87%
inhibition at 10 µM (human α2A receptor; [4]): 82%

CN1CCc2c(c3ccccc3n2Cc2ccccc2)C1.Cl [1.9(1)·HCl, 5-benzyl-2-methyl-2,3,4,5-tetrahydro-1H-pyrido[4,3-b]indole hydrochloride]
IC50 [1]: 110 nM
Ki [1]: 63.2 nM
nH ([1]; 5-HT6): 1.04
nH [1, 5]: 1.32
inhibition at 10 µM ([1]; read-out: 5-HT6 % inhibition): 71%
inhibition at 10 µM (adrenergic receptor α1A; [6]): 70%
nH ([2]; 5-HT2B): 0.836
inhibition at 10 µM ([2]; read-out: 5-HT2B % inhibition, 10 µM ligand): 99%
inhibition at 10 µM (human H2 receptor): 97%
inhibition at 10 µM (human α2A receptor; [4]): 100%

Cc1ccc2c(c1)c1c(n2CCc2ccccc2)CCN(C)C1 [1.1.2(1-2)·HCl, 2,8-dimethyl-5-phenethyl-1,2,3,4-tetrahydro-1H-pyrido[4,3-b]indole hydrochloride]
inhibition at 10 µM (adrenergic receptor α1A; [6]): 99%
nH ([2]; 5-HT2B): 0,868
inhibition at 10 µM ([2]; read-out: 5-HT2B % inhibition): 100%
inhibition at 10 µM (human H2 receptor): 102%
inhibition at 10 µM (human α1D receptor; [3]): 102%
inhibition at 10 µM (human α2A receptor; [4]): 95%

CN1CCc2c(c3ccccc3n2Cc2ccccc2)C1 [1.9(1)·1/2NDSA, bis-(5-benzyl-2-methyl-2,3,4,5-tetrahydro-1H-pyrido[4,3-b]indole) naphthalene-1,5-disulfonate]
nH ([1]; 5-HT6): 1.07
inhibition at 0.3 µM ([1]; read-out: 5-HT6 % inhibition): 78%
nH (adrenergic receptor α1A): 1,08
inhibition at 1 µM (adrenergic receptor α1A; [6]): 67%
IC50 ([2]; 5-HT2B): 31.4 nM
Ki ([2]; 5-HT2B): 20 nM
nH ([2]; 5-HT2B): 0.552
Histamine receptors, % inhibition H2 (human H2 receptor; 10 µM ligand): 97%
nH (human α1D receptor): 1,05
inhibition at 3 µM (human α1D receptor; [3]): 70%
nH (human α2A receptor): 1,13
inhibition at 0.3 µM (human α2A receptor; [4]): 73%

Cc1ccc2c(c1)[C@@H]1CN(C)CCC[C@@H]1N2CCc1cccnc1 (relative stereo) [1.6.1(1)·3HCl]
inhibition at 1 µM ([1]; read-out: 5-HT6 % inhibition): 84%
inhibition at 10 µM (adrenergic receptor α1A; [6]): 90%
inhibition at 10 µM (human H2 receptor): 48%
inhibition at 10 µM (human α1D receptor; [3]): 90%
inhibition at 10 µM (human α2A receptor; [4]): 84%

Cc1ccc(CCn2c3c(c4cc(C)ccc42)CN(C)CC3)cc1 [1.1.2(1-3), 2,8-dimethyl-5-[2-(4-methylphenyl)-ethyl]-1,2,3,4-tetrahydro-1H-pyrido[4,3-b]indole]
nH (adrenergic receptor α1A): 1,26
5-HT2B % inhibition ([2]; 10 µM ligand): 95%
nH (human α1D receptor): 1,21
nH (human α2A receptor): 1.12

Cc1ccc2c(c1)c1c(n2CCc2ccc(C)nc2)CCN(C)C1 [1.1.2(4-2)·2HCl]
inhibition at 10 µM ([1]; 10 µM ligand, read-out: 5-HT6 % inhibition): 90%
inhibition at 10 µM (adrenergic receptor α1A; 10 µM ligand, read-out: α-Adrenoceptor, % inhibition α1A): 97%
nH (adrenergic receptor α1A): 1.12
inhibition at 10 µM ([2]; 10 µM ligand, read-out: 5-HT2B % inhibition): 47%
inhibition at 10 µM (human α2A receptor; 10 µM ligand, read-out: α-Adrenoceptor, % inhibition α2A): 95%
nH (human α2A receptor): 0.828

Cc1ccc2c(c1)c1c(n2CCc2ccccn2)CCN(C)C1 [1.1.2(2-3)·2HCl]
IC50 [1]: 2.14 nM
Ki [1]: 1.23 nM
nH ([1]; 5-HT6): 0.744
nH [1, 5]: 0.655
inhibition at 10 µM (adrenergic receptor α1A; [6]): 81%
nH ([2]; 5-HT2B): 0.913
inhibition at 1 µM ([2]; read-out: 5-HT2B % inhibition): 89%
inhibition at 10 µM (human H2 receptor): 82%
inhibition at 10 µM (human α1D receptor; [3]): 92%
inhibition at 10 µM (human α2A receptor; [4]): 93%

Cc1ccc2c(c1)c1c(n2CCc2ccccn2)CCCN(C)C1 [1.2.2(2-2)]
5-HT6 % inhibition ([1]; 10 µM ligand): 21%
α-Adrenoceptor, % inhibition α1A (adrenergic receptor α1A; 10 µM ligand): 64%
α-Adrenoceptor, % inhibition α1D (human α1D receptor; 10 µM ligand): 63%
α-Adrenoceptor, % inhibition α2A (human α2A receptor; 10 µM ligand): 90%
